Assay results as given in US8048927B2 (Besins Healthcare Luxembourg, priority 2004, dated 2011).

Key:
[1] = in vivo; cited from earlier work
[2] = pharmacokinetics of 4-hydroxy tamoxifen gel in healthy premenopausal women (Example 3); assay type: in vivo, human; settings: for Plasma concentration of 4-hydroxy tamoxifen, Range: First cycle Day 1, 0 hr; for AUC0-24, Mean ± SD / Cav = AUC0-24/24, Mean ± SD / Cmax, Mean ± SD / tmax, Mean ± SD: last administration, day 25 of second cycle
Procedure: Each participant applied the gel daily for the duration of two menstrual cycles.
At the end of a menstrual cycle, each patient received a single dose, after which serial blood samples were collected at 0, 0.5, 1, 1.5, 2, 3, 4, 6, 12, 18, 24, 36, 48, and 72 hours.
On the first day of the following menstruation, treatment, which consisted of daily application of the gel over two menstrual cycles, began. Blood samples were collected 24 hours following the morning application of gel on days 7, 20 and 25 of the first and second cycles. On the last day of administration, day 25 of the second menstrual cycle, serial blood samples were collected prior to application and at 0.5, 1, 1.5, 2, 3, 4, 6, 12, 18, 24, 36, 48, and 72 hours after application of the gel.

CCC(=C(c1ccc(O)cc1)c1ccc(OCCN(C)C)cc1)c1ccccc1 [4-hydroxy tamoxifen, 1-[4-(2-N-dimethylaminoethoxy)phenyl]-1-(4-hydroxyphenyl)-2-phenylbut-1-ene]
breast tissue concentration by site of application [1]: concentrated at higher amounts in breast tissue when the gel was applied directly to the breasts | Plasma concentration of 4-hydroxy tamoxifen, Range ([2]; 0.5 mg/day, gel 20 mg/100 g): (0-17.2) pg/mL | Plasma concentration of 4-hydroxy tamoxifen, Mean ± SD ([2]; 0.5 mg/day, gel 20 mg/100 g, First cycle Day 7, 24 hr after application): 0.0064 ± 0.0056 ng/mL | Plasma concentration of 4-hydroxy tamoxifen, Mean ± SD ([2]; 0.5 mg/day, gel 20 mg/100 g, First cycle Day 20, 24 hr after application): 0.0136 ± 0.0079 ng/mL | Plasma concentration of 4-hydroxy tamoxifen, Mean ± SD ([2]; 0.5 mg/day, gel 20 mg/100 g, First cycle Day 25, 24 hr after application): 0.0239 ± 0.0234 ng/mL | Plasma concentration of 4-hydroxy tamoxifen, Mean ± SD ([2]; 0.5 mg/day, gel 20 mg/100 g, Second cycle Day 7, 24 hr after application): 0.0252 ± 0.0161 ng/mL | Plasma concentration of 4-hydroxy tamoxifen, Mean ± SD ([2]; 0.5 mg/day, gel 20 mg/100 g, Second cycle Day 20, 24 hr after application): 0.0157 ± 0.014 ng/mL | Plasma concentration of 4-hydroxy tamoxifen, Mean ± SD ([2]; 0.5 mg/day, gel 20 mg/100 g, Second cycle Day 25, 0 hr (24 hours after Day 24 application, prior to final application)): 0.0108 ± 0.0099 ng/mL | Plasma concentration of 4-hydroxy tamoxifen, Mean ± SD ([2]; 0.5 mg/day, gel 20 mg/100 g, Second cycle Day 25, 0.5 hr after application): 0.0109 ± 0.0074 ng/mL | Plasma concentration of 4-hydroxy tamoxifen, Mean ± SD ([2]; 0.5 mg/day, gel 20 mg/100 g, Second cycle Day 25, 1 hr after application): 0.0104 ± 0.0078 ng/mL | Plasma concentration of 4-hydroxy tamoxifen, Mean ± SD ([2]; 0.5 mg/day, gel 20 mg/100 g, Second cycle Day 25, 1.5 hr after application): 0.009 ± 0.0082 ng/mL | Plasma concentration of 4-hydroxy tamoxifen, Mean ± SD ([2]; 0.5 mg/day, gel 20 mg/100 g, Second cycle Day 25, 2 hr after application): 0.0118 ± 0.0095 ng/mL | Plasma concentration of 4-hydroxy tamoxifen, Mean ± SD ([2]; 0.5 mg/day, gel 20 mg/100 g, Second cycle Day 25, 3 hr after application): 0.01 ± 0.0079 ng/mL | Plasma concentration of 4-hydroxy tamoxifen, Mean ± SD ([2]; 0.5 mg/day, gel 20 mg/100 g, Second cycle Day 25, 4 hr after application): 0.0092 ± 0.0083 ng/mL | Plasma concentration of 4-hydroxy tamoxifen, Mean ± SD ([2]; 0.5 mg/day, gel 20 mg/100 g, Second cycle Day 25, 6 hr after application): 0.0114 ± 0.0085 ng/mL | Plasma concentration of 4-hydroxy tamoxifen, Mean ± SD ([2]; 0.5 mg/day, gel 20 mg/100 g, Second cycle Day 25, 12 hr after application): 0.011 ± 0.0097 ng/mL | Plasma concentration of 4-hydroxy tamoxifen, Mean ± SD ([2]; 0.5 mg/day, gel 20 mg/100 g, Second cycle Day 25, 18 hr after application): 0.0097 ± 0.0088 ng/mL | Plasma concentration of 4-hydroxy tamoxifen, Mean ± SD ([2]; 0.5 mg/day, gel 20 mg/100 g, Second cycle Day 26, 24 hr after last application): 0.0124 ± 0.0094 ng/mL | Plasma concentration of 4-hydroxy tamoxifen, Mean ± SD ([2]; 0.5 mg/day, gel 20 mg/100 g, Second cycle Day 26, 36 hr after last application): 0.0109 ± 0.0069 ng/mL | Plasma concentration of 4-hydroxy tamoxifen, Mean ± SD ([2]; 0.5 mg/day, gel 20 mg/100 g, Second cycle Day 27, 48 hr after last application): 0.0121 ± 0.0065 ng/mL | Plasma concentration of 4-hydroxy tamoxifen, Mean ± SD ([2]; 0.5 mg/day, gel 20 mg/100 g, Second cycle Day 28, 72 hr after last application): 0.0099 ± 0.0071 ng/mL | Plasma concentration of 4-hydroxy tamoxifen ([2]; 0.5 mg/day, gel 20 mg/100 g, after the second cycle, +8 days, LOQ <5 pg/mL): <LOQ | Plasma concentration of 4-hydroxy tamoxifen, maximum ([2]; 0.5 mg/day, gel 20 mg/100 g, after the second cycle, +12 days): (maximum 9.09) pg/mL | Plasma concentration of 4-hydroxy tamoxifen ([2]; 0.5 mg/day, gel 20 mg/100 g, after the second cycle, +20 days): 0 ng/mL | AUC0-24, Mean ± SD ([2]; 0.5 mg/day, gel 20 mg/100 g): 0.2563 ± 0.2053 ng·h/mL | Cav = AUC0-24/24, Mean ± SD ([2]; 0.5 mg/day, gel 20 mg/100 g): 0.0107 ± 0.0085 ng/mL | Cmax, Mean ± SD ([2]; 0.5 mg/day, gel 20 mg/100 g): 0.017 ± 0.0085 ng/mL | tmax, Mean ± SD ([2]; 0.5 mg/day, gel 20 mg/100 g): 40 ± 81 h | Plasma concentration of 4-hydroxy tamoxifen, Range ([2]; 1 mg/day, gel 20 mg/100 g): (0-13.9) pg/mL | Plasma concentration of 4-hydroxy tamoxifen, Mean ± SD ([2]; 1 mg/day, gel 20 mg/100 g, First cycle Day 7, 24 hr after application): 0.0152 ± 0.0097 ng/mL | Plasma concentration of 4-hydroxy tamoxifen, Mean ± SD ([2]; 1 mg/day, gel 20 mg/100 g, First cycle Day 20, 24 hr after application): 0.0173 ± 0.0095 ng/mL | Plasma concentration of 4-hydroxy tamoxifen, Mean ± SD ([2]; 1 mg/day, gel 20 mg/100 g, First cycle Day 25, 24 hr after application): 0.0155 ± 0.0066 ng/mL | Plasma concentration of 4-hydroxy tamoxifen, Mean ± SD ([2]; 1 mg/day, gel 20 mg/100 g, Second cycle Day 7, 24 hr after application): 0.0174 ± 0.0112 ng/mL | Plasma concentration of 4-hydroxy tamoxifen, Mean ± SD ([2]; 1 mg/day, gel 20 mg/100 g, Second cycle Day 20, 24 hr after application): 0.0148 ± 0.0065 ng/mL | Plasma concentration of 4-hydroxy tamoxifen, Mean ± SD ([2]; 1 mg/day, gel 20 mg/100 g, Second cycle Day 25, 0 hr (24 hours after Day 24 application, prior to final application)): 0.0157 ± 0.0171 ng/mL | Plasma concentration of 4-hydroxy tamoxifen, Mean ± SD ([2]; 1 mg/day, gel 20 mg/100 g, Second cycle Day 25, 0.5 hr after application): 0.0135 ± 0.0091 ng/mL | Plasma concentration of 4-hydroxy tamoxifen, Mean ± SD ([2]; 1 mg/day, gel 20 mg/100 g, Second cycle Day 25, 1 hr after application): 0.0108 ± 0.0066 ng/mL | Plasma concentration of 4-hydroxy tamoxifen, Mean ± SD ([2]; 1 mg/day, gel 20 mg/100 g, Second cycle Day 25, 1.5 hr after application): 0.0118 ± 0.008 ng/mL | Plasma concentration of 4-hydroxy tamoxifen, Mean ± SD ([2]; 1 mg/day, gel 20 mg/100 g, Second cycle Day 25, 2 hr after application): 0.0107 ± 0.0069 ng/mL | Plasma concentration of 4-hydroxy tamoxifen, Mean ± SD ([2]; 1 mg/day, gel 20 mg/100 g, Second cycle Day 25, 3 hr after application): 0.0114 ± 0.0079 ng/mL | Plasma concentration of 4-hydroxy tamoxifen, Mean ± SD ([2]; 1 mg/day, gel 20 mg/100 g, Second cycle Day 25, 4 hr after application): 0.0112 ± 0.0073 ng/mL | Plasma concentration of 4-hydroxy tamoxifen, Mean ± SD ([2]; 1 mg/day, gel 20 mg/100 g, Second cycle Day 25, 6 hr after application): 0.0107 ± 0.0064 ng/mL | Plasma concentration of 4-hydroxy tamoxifen, Mean ± SD ([2]; 1 mg/day, gel 20 mg/100 g, Second cycle Day 25, 12 hr after application): 0.0118 ± 0.0078 ng/mL | Plasma concentration of 4-hydroxy tamoxifen, Mean ± SD ([2]; 1 mg/day, gel 20 mg/100 g, Second cycle Day 25, 18 hr after application): 0.0122 ± 0.0083 ng/mL | Plasma concentration of 4-hydroxy tamoxifen, Mean ± SD ([2]; 1 mg/day, gel 20 mg/100 g, Second cycle Day 26, 24 hr after last application): 0.0186 ± 0.0142 ng/mL | Plasma concentration of 4-hydroxy tamoxifen, Mean ± SD ([2]; 1 mg/day, gel 20 mg/100 g, Second cycle Day 26, 36 hr after last application): 0.0134 ± 0.0075 ng/mL | Plasma concentration of 4-hydroxy tamoxifen, Mean ± SD ([2]; 1 mg/day, gel 20 mg/100 g, Second cycle Day 27, 48 hr after last application): 0.0125 ± 0.006 ng/mL | Plasma concentration of 4-hydroxy tamoxifen, Mean ± SD ([2]; 1 mg/day, gel 20 mg/100 g, Second cycle Day 28, 72 hr after last application): 0.0099 ± 0.0058 ng/mL | T(1stC < LOQ), first timepoint at which the plasma concentration was below the limit of quantification, Mean ± SD ([2]; 1 mg/day, gel 20 mg/100 g, after last administration): 274 ± 141 h | Plasma concentration of 4-hydroxy tamoxifen, Mean ± SD ([2]; 1 mg/day, gel 20 mg/100 g, after the second cycle, +5 days): 0.0058 ± 0.0052 ng/mL | Plasma concentration of 4-hydroxy tamoxifen ([2]; 1 mg/day, gel 20 mg/100 g, after the second cycle, +20 days, LOQ <5 pg/mL): <LOQ | AUC0-24, Mean ± SD ([2]; 1 mg/day, gel 20 mg/100 g): 0.3009 ± 0.1908 ng·h/mL | Cav = AUC0-24/24, Mean ± SD ([2]; 1 mg/day, gel 20 mg/100 g): 0.0125 ± 0.0079 ng/mL | Cmax, Mean ± SD ([2]; 1 mg/day, gel 20 mg/100 g): 0.021 ± 0.004 ng/mL | tmax, Mean ± SD ([2]; 1 mg/day, gel 20 mg/100 g): 24 ± 18 h | Plasma concentration of 4-hydroxy tamoxifen, Range ([2]; 1 mg/day, gel 57 mg/100 g): (0-9.5) pg/mL | Plasma concentration of 4-hydroxy tamoxifen, Mean ± SD ([2]; 1 mg/day, gel 57 mg/100 g, First cycle Day 7, 24 hr after application): 0.0144 ± 0.0131 ng/mL | Plasma concentration of 4-hydroxy tamoxifen, Mean ± SD ([2]; 1 mg/day, gel 57 mg/100 g, First cycle Day 20, 24 hr after application): 0.0181 ± 0.0158 ng/mL | Plasma concentration of 4-hydroxy tamoxifen, Mean ± SD ([2]; 1 mg/day, gel 57 mg/100 g, First cycle Day 25, 24 hr after application): 0.0198 ± 0.0162 ng/mL | Plasma concentration of 4-hydroxy tamoxifen, Mean ± SD ([2]; 1 mg/day, gel 57 mg/100 g, Second cycle Day 7, 24 hr after application): 0.0222 ± 0.0164 ng/mL | Plasma concentration of 4-hydroxy tamoxifen, Mean ± SD ([2]; 1 mg/day, gel 57 mg/100 g, Second cycle Day 20, 24 hr after application): 0.0244 ± 0.0201 ng/mL | Plasma concentration of 4-hydroxy tamoxifen, Mean ± SD ([2]; 1 mg/day, gel 57 mg/100 g, Second cycle Day 25, 0 hr (24 hours after Day 24 application, prior to final application)): 0.0272 ± 0.0208 ng/mL
